Reference: US20250382261A1 (The Broad Institute, Inc., priority 2021, published 2025)

Experiments:
[1] = test system: A. baumannii (ATCC 17978); test: Checkerboard potentiation assay with novobiocin; format: cell-based
Procedure: Bacterial strains and culture conditions. The following bacterial strains were used within this study; A. baumannii (ATCC 17978), K. pneumoniae (ATCC 43816), K. pneumoniae (ATCC 43816, expressing pGDP2:mcr-1), P. aeruginosa (PA01). Bacterial growth was in cation-adjusted Mueller-Hinton broth (MHB) at 37° C., and inoculum was prepared according to CLSI protocol (CLSI 2015).
Potentiation assays. Checkerboard analyses were conducted with each drug serially diluted at eight concentrations to create an 8×8 matrix. At least two biological replicates were done for each combination, and the means were used for FIC calculation. The FIC for each drug was calculated by dividing the concentration of the drug in the presence of codrug in a combination for a well showing <10% growth by the MIC for that drug alone. The FIC index (FICI) is the sum of the two FICs, with an FIC index≤0.5 deemed synergistic.

LPS from E. coli EH100 = test: BODIPY-Cadaverine LPS displacement assay; format: binding; conditions: BODIPY-cadaverine displacement from E. coli EH100 LPS
Procedure: BODIPY-Cadaverine LPS displacement assay. The BODIPY-cadaverine LPS displacement assay was performed as previously described (Wood et al. 2004. Combinatorial Chemistry & High Throughput Screening, 7: 239-49; Klobucar et al. 2021. ACS Chemical Biology, 16: 929-42). A solution of BODIPY-cadaverine (2.25 μM) and LPS from E. coli EH100 (5.25 μM) in Tris-HCl buffer (50 mM, pH 7.4) was prepared. 0.5 μL of compound and 49.5 μL of the Tris-HCl buffer with BODIPY-cadaverine and LPS solution were added to a Corning nonbinding surface black 384-well polystyrene plate. Fluorescence intensity was measured immediately with an excitation wavelength of 580 nm and an emission wavelength of 620 nm. EC50 values were calculated using a three-parameter logistic curve in GraphPad Prism 9.

A. baumannii ATCC 17978 = test: Systemic A. baumannii murine infection model; format: in vivo, mouse
Procedure: Mouse infection models. Animal experiments were conducted according to guidelines set by the Canadian Council on Animal Care using protocols approved by the Animal Review Ethics Board at McMaster University under Animal Use Protocol #20-12-43. Before infection, mice were relocated at random from a housing cage to treatment or control cages. No animals were excluded from analyses, and blinding was considered unnecessary. Seven- to nine-week-old female C57BL/6 mice (Charles River) were infected intraperitoneally with ˜2×10^6 CFU of A. baumannii ATCC 17978, with 5% porcine mucin (Sigma-Aldrich). Infections were allowed to establish for 2 h, and treatments were administered intraperitoneally. For the survival study, the clinical endpoint was determined using a five-point body condition score analyzing weight loss, decrease in body temperature, respiratory distress, hampered mobility and hunched posture. Experimental endpoint was defined as five days post-infection for mice not reaching clinical endpoint. For CFU/mL enumeration, animals were infected as described above and euthanized 6 h post-infection, and blood was collected into sterile 2 ml heparinized tubes (BD Scientific) serially diluted in PBS and plated onto solid LB. Plates were incubated overnight at 37° C., and colonies were quantified to determine bacterial load.
This was directly compared to the activity of P35 and P36 in this model (all administered at 10 mg/kg) in combination with novobiocin (50 mg/kg).
For this experiment the same A. baumannii infection model was used, however, endpoint was defined as 6 h post-infection, at which point blood was collected for CFU/mL enumeration (FIG. 2b).

[2] = In vitro metabolic stability, human; format: in vitro ADME; conditions: read-out: In vitro metabolic stability (t1/2, min), human
CYP1A2 = target: T1, CYP1A2 (Homo sapiens, UniProt P05177); test: P450 inhibition; format: in vitro ADME; conditions: read-out: P450 Inhibition CYP 1A2 (IC50)
T1 construct: Cyprotex Ltd. (contract laboratory that ran the assay)
T1 sequence (P05177 1-516): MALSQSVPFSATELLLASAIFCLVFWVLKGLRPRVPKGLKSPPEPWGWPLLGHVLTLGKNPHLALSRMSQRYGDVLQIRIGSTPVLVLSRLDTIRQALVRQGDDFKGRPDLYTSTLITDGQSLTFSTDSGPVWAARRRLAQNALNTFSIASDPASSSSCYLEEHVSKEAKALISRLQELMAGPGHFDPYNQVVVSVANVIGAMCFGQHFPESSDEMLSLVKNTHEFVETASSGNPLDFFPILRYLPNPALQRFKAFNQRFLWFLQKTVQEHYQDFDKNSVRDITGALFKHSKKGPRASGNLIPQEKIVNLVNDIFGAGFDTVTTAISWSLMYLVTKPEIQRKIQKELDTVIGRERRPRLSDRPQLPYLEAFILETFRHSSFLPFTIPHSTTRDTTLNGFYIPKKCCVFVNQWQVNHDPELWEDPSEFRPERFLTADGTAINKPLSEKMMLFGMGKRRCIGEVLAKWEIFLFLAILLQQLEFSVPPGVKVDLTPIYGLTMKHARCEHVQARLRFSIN
Procedure: (§1) P450 inhibition. An 8-point dose-response of P35 (0, 0.1, 0.25, 1, 2.5, 10, 25 μM) was tested against the following cytochrome P450 (CYP) isoforms CYP3A4, CYP2C9, CYP2D6, CYP1A2, and CYP2C19. Reduction in metabolite formation was quantified using LC-MS/MS (with the exception of ethoxyresorufin for CYP1A2) to calculate an IC50 value. This assay was performed by Cyprotex Ltd.

CYP2C19 = target: T2, CYP2C19 (Homo sapiens, UniProt P33261); test: P450 inhibition; format: in vitro ADME; conditions: read-out: P450 Inhibition CYP 2C19 (IC50)
T2 construct: Cyprotex Ltd. (contract laboratory that ran the assay)
Procedure: as §1

CYP2C9 = target: T3, CYP2C9 (Homo sapiens, UniProt P11712); test: P450 inhibition; format: in vitro ADME; conditions: read-out: P450 Inhibition CYP 2C9 (IC50)
T3 construct: Cyprotex Ltd. (contract laboratory that ran the assay)
Procedure: as §1

CYP2D6 = target: T4, CYP2D6 (Homo sapiens, UniProt P10635); test: P450 inhibition; format: in vitro ADME; conditions: read-out: P450 Inhibition CYP 2D6 (IC50)
T4 construct: Cyprotex Ltd. (contract laboratory that ran the assay)
Procedure: as §1

CYP3A4 = target: T5, CYP3A4 (Homo sapiens, UniProt P08684); test: P450 inhibition; format: in vitro ADME; conditions: read-out: P450 Inhibition CYP 3A4 (IC50)
T5 construct: Cyprotex Ltd. (contract laboratory that ran the assay)
Procedure: as §1

[3] = in vivo, 1 mg/kg
Procedure: Plasma samples were taken from 3 mice per time point (5, 15, 30 min; 1, 2, 4, 6 and 8 h post-dose). An aliquot of 2 μL sample was protein precipitated with 60 μL methanol, the mixture was vortex-mixed well and centrifuged at 13000 rpm for 10 min at 4° C. 2 μL supernatant was injected for LC-MS/MS analysis. The mean plasma concentration and the standard deviation from all 3 animals within each time point were calculated. PK parameters were calculated with a non-compartmental analysis. The mean plasma concentrations from all 3 mice at each time point were used in the calculations.

T3 sequence (P11712 whole entry): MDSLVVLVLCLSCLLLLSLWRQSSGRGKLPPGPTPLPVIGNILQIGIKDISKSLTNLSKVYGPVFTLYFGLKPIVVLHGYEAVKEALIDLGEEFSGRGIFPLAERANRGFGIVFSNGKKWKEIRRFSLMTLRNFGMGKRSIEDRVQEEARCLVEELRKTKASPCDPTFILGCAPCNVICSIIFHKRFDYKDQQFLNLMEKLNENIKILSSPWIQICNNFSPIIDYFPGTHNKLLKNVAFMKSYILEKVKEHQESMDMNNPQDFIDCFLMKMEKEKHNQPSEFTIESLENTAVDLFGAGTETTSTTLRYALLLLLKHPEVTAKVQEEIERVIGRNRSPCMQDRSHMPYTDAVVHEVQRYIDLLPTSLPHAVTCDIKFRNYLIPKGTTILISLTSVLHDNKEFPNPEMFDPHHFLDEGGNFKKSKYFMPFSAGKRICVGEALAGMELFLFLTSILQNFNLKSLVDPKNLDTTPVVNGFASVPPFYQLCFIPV
T5 sequence (P08684 whole entry): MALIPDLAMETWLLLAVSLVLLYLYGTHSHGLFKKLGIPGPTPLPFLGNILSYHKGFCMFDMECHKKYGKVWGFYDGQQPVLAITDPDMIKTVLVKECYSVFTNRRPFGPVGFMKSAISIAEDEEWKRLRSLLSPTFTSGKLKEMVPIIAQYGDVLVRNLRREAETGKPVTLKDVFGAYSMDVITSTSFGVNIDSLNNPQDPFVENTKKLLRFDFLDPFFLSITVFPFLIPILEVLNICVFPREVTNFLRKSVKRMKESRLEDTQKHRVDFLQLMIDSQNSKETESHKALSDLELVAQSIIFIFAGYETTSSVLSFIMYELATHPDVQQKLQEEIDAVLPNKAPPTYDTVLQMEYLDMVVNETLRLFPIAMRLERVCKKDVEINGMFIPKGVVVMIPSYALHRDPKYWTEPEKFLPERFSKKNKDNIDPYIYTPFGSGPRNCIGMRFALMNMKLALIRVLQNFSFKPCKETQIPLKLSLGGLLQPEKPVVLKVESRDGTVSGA
T4 sequence (P10635 whole entry): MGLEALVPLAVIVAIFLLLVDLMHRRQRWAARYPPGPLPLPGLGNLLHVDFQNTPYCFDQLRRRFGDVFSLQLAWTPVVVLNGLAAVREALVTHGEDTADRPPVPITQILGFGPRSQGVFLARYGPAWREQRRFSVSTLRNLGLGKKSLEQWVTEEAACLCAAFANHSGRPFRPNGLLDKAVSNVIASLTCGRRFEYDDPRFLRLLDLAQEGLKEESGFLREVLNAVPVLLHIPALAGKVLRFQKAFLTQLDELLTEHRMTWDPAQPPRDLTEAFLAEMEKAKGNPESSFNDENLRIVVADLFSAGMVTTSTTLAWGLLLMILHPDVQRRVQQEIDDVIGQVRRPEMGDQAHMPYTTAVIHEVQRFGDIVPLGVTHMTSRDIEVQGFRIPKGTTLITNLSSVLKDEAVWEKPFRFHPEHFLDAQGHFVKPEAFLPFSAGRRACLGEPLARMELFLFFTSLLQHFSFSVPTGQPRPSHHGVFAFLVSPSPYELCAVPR
T2 sequence (P33261 whole entry): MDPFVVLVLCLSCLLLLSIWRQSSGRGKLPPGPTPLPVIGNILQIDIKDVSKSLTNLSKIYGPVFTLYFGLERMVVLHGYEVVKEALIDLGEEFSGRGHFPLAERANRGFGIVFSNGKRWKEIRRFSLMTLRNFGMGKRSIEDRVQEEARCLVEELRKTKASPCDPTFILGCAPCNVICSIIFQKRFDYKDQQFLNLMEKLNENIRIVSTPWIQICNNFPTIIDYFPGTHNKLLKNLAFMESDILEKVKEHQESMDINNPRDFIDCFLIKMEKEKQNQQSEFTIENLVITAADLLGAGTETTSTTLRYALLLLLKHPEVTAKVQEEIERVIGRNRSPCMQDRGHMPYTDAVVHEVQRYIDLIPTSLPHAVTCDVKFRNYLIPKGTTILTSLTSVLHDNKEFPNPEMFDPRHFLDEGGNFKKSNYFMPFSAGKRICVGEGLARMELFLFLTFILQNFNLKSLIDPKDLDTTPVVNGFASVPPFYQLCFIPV

## N=C(N)c1ccc(OCCN(CCOc2ccc(C(=N)N)cc2)c2ccccc2)cc1 [Analog P35]
[1]; 20 mM Mg2+ added to growth media
  FICI with novobiocin in presence of 20 mM Mg2+: 0.56
[1]; with novobiocin
  FICI AB: 0.094
LPS from E. coli EH100
  LPS Displacement (EC50, μg/mL): 87.21 µg/mL
A. baumannii ATCC 17978; 10 mg/kg + 50 mg/kg novobiocin, 6 h post-infection
  Reduction in blood CFU/mL in combination with novobiocin: 3.05 log10
A. baumannii ATCC 17978; 10 mg/kg analog + 50 mg/kg novobiocin i.p. 2 h post-infection, endpoint 5 days
  Animals rescued in combination with novobiocin: 100%
A. baumannii ATCC 17978; alone, 6 h post-infection, compared to control-treated animals
  Impact on blood CFU/mL, treatment alone: no significant impact
[2]
  half-life: > 145 min
CYP1A2
  IC50: > 50 µM
CYP2C19
  IC50: > 50 µM
CYP2C9
  IC50: > 50 µM
CYP2D6
  IC50: 14.8 µM
CYP3A4
  IC50: > 50 µM
[3]; female, C57BL/6, mouse, iv
  AUCExtra (%): 6.74%
  AUMCExtra (%): 37.7%
  Tlast: 8.00 h
[3]; mouse
  Adverse effects after single intravenous dose: no adverse effects
